Data on 25 compounds can be found in ChEMBL document CHEMBL1139065, “Pyrazole-based factor Xa inhibitors containing N-arylpiperidinyl P4 residues” (Bioorg Med Chem Lett, 2007).

In one series the target is Coagulation factor X (Homo sapiens, UniProt P00742). As to the kind of experiment: Inhibition of human factor 10a.
Series [1] can be described thus: Apparent permeability across Caco-2 cells. The following applies: human.
The nature of series [2]: Clearance in dog at 0.5 mg/kg, iv. Conditions: in vivo.
The nature of another series: in vivo. The following applies: dog, po, 0.2 mg/kg.
For the next series, the system named is Plasma. The series is described as follows: Anticoagulant potency in human plasma assessed as concentration required to double prothrombin time. The series is classed as functional.
Series [3] is described as follows: Half life in dog at 0.2 mg/kg, po. The following applies: in vivo.
The nature of series [4]: Metabolic stability in human liver microsomes assessed as intrinsic clearance. Format: ADME, Microsome. Background: Liver microsomes are vesicles of endoplasmic reticulum, rich in cytochrome P450 enzymes.
The next series addresses Trypsin (Homo sapiens, UniProt P07477+P07478+P35030). The series is described as follows: Inhibition of trypsin. The series is classed as protein assay.
A short description of series [5]: Half life in human liver microsomes.
The target of another series is Prothrombin (Homo sapiens, UniProt P00734). The series is described as follows: Inhibition of thrombin.
A further series is filed under the species Oryctolagus cuniculus. The series is described as follows: Antithrombotic activity against rabbit arterio-venous shunt thrombosis model. The series is classed as functional, organism-based.

pEC50, pKi: −log10 of the molar value. Some results are limits rather than exact numbers.

Coagulation factor X, sequence (P00742 41-179 limits assumed): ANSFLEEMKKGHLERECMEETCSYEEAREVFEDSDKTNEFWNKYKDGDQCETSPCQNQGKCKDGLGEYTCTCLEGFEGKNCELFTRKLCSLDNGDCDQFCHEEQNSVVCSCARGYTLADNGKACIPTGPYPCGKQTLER
Coagulation factor X, sequence (P00742 235-488 limits assumed): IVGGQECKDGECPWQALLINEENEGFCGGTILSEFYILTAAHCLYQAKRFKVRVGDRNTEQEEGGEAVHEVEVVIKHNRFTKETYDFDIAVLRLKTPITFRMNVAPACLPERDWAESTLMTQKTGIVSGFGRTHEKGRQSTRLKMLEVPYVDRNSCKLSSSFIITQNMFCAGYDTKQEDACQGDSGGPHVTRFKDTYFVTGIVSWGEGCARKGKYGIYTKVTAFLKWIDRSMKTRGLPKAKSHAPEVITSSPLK

Turning to `CNCc1ccccc1N1CCC(NC(=O)c2cc(C(F)(F)F)nn2-c2ccc3onc(N)c3c2)CC1`, the pKi on Coagulation factor X is 9.17. The Papp in series [1] was determined as 0.1 ×10⁻⁶ cm/s. In series [2], this compound had a clearance of 107 mL/min/kg. The compound also came in with a bioavailability in the series “in vivo” of 1.7%. Also, in the series with Plasma, the PT was determined as 1.2 µM. The compound further showed a half-life in [3] of 0.3 h.

On to `CS(=O)(=O)c1ccccc1[C@H]1CC[C@H](NC(=O)c2cc(C(F)(F)F)nn2-c2cccc(CN)c2)CC1`, for which, on Coagulation factor X, the negative logarithm of the Ki (pKi) was 8.24.

In the case of `COc1ccc(-n2nc(C(N)=O)c3c2C(=O)N(C2CCN(c4ccccc4CN4CCCC4)CC2)CC3)cc1`, on Coagulation factor X, the pKi is 9.59. For the same compound, the PT in the series with Plasma is 1.2 µM.

Turning to `COc1ccc(-n2nc(C(N)=O)c3c2C(=O)N(C2CCN(c4ccccc4CN(C)C(C)=O)CC2)CC3)cc1`, the pKi at Coagulation factor X is 7.64.

`COc1ccc(-n2nc(C(N)=O)c3c2C(=O)N(C2CCN(c4ccccc4CN4CCOCC4)CC2)CC3)cc1` had a negative-log Ki (pKi) on Coagulation factor X of 9.24. Besides, in the series on Plasma, the PT was 3.5 µM.

In turn, `COc1ccc(-n2nc(C(F)(F)F)cc2C(=O)NC2CCN(c3ccccc3CN3CCCC3)CC2)cc1` had a pKi at Coagulation factor X of 7.54.

For the compound `CS(=O)(=O)c1ccccc1C1=CCC(NC(=O)c2cc(C(F)(F)F)nn2-c2cccc(CN)c2)CC1` (configuration not stated), the negative-log Ki (pKi) at Coagulation factor X is 8.52.

Turning to `CS(=O)(=O)c1ccccc1N1CCC(NC(=O)c2cc(C(F)(F)F)nn2-c2ccc3onc(N)c3c2)CC1`, on Coagulation factor X, the negative-log Ki (pKi) was 8.77. Besides, the apparent permeability coefficient (Papp) in series [1] was determined as 1.7 ×10⁻⁶ cm/s. The clearance in [2] was 18.3 mL/min/kg. Moreover, the intrinsic metabolic clearance (microsomal CLint) in [4] worked out at 51 µL/min/mg. The bioavailability in “in vivo” turned out to be 24%. The PT in the series on Plasma turned out to be 2.8 µM. Moreover, the half-life in series [3] was 1.3 h.

Take `CS(=O)(=O)c1ccccc1[C@H]1CC[C@@H](NC(=O)c2cc(C(F)(F)F)nn2-c2cccc(CN)c2)CC1`: the pKi on Coagulation factor X is 5.70.

Regarding `COc1ccc(-n2nc(C(N)=O)c3c2C(=O)N(C2CCN(c4ccccc4S(C)(=O)=O)CC2)CC3)cc1`, the results for the pKi at Coagulation factor X and at Prothrombin were 9.46 and 5.92, respectively. For the same compound, the inhibition constant Ki on Trypsin is on record as over 20000 nM. For the same compound, the Papp in series [1] stood at 1.5 ×10⁻⁶ cm/s. In addition, the half-life in [5] was 1.95 h; in [3] it was 0.8 h. This compound had a clearance in series [2] of 3.83 mL/min/kg. In addition, the bioavailability in “in vivo” came out at 78%. In addition, the PT in the series on Plasma came to 4.2 µM.

In turn, `Nc1noc2ccc(-n3nc(C(F)(F)F)cc3C(=O)NC3CCN(c4ccccc4CN4CCC[C@H]4O)CC3)cc12` gave a negative-log Ki (pKi) on Coagulation factor X of 9.14. In series [1], the apparent permeability coefficient (Papp) came out at 0.2 ×10⁻⁶ cm/s. Also, the clearance in series [2] is 36.7 mL/min/kg. Also, in [4], the microsomal CLint worked out at 40 µL/min/mg. In addition, the PT in the series on Plasma came out at 0.83 µM.

Compound `COc1ccc(-n2nc(C(N)=O)c3c2C(=O)N(C2CCN(c4ccccc4CN4CCC[C@@H]4O)CC2)CC3)cc1` had a pKi on Coagulation factor X of 9.06. In addition, the PT in the series on Plasma amounted to 2.5 µM.

At Coagulation factor X, `CNCc1ccccc1N1CCC(N2CCc3c(C(N)=O)nn(-c4ccc(OC)cc4)c3C2=O)CC1` gave a pKi of 9.00. Besides, the PT in the series with Plasma came to 1.8 µM.

On to `CS(=O)(=O)c1ccccc1N1CCC(NC(=O)c2cc(C(F)(F)F)nn2-c2cccc(CN)c2)CC1`, for which the pKi at Coagulation factor X is 8.31.

In the case of `COc1ccc(-n2nc(C(N)=O)c3c2C(=O)N(C2CCN(c4ccccc4CN(C)S(C)(=O)=O)CC2)CC3)cc1`, the pKi on Coagulation factor X was 7.09.

At Coagulation factor X, `COc1ccc(-n2nc(C(F)(F)F)cc2C(=O)NC2CCN(c3ccccc3S(C)(=O)=O)CC2)cc1` showed a pKi of 7.85. This pKi lies 0.76 log units higher than the previous one.

Compound `COc1ccc(-n2nc(C(N)=O)c3c2C(=O)N(C2CCN(c4ccccc4CN(C)C)CC2)CC3)cc1` showed a pKi on Coagulation factor X of 9.39. For the same compound, the PT with Plasma is 1 µM.

In the case of `COc1ccc(-n2nc(C(F)(F)F)cc2C(=O)NC2CCN(c3ccccc3CN(C)C)CC2)cc1`, the pKi at Coagulation factor X is 8.06.

`CS(=O)(=O)c1ccccc1N1CCC(NC(=O)c2cc(C(F)(F)F)nn2-c2ccccc2CN)CC1` had a negative-log Ki (pKi) on Coagulation factor X of 8.62.

In the case of `CCN(CC)Cc1ccccc1N1CCC(N2CCc3c(C(N)=O)nn(-c4ccc(OC)cc4)c3C2=O)CC1`, the negative logarithm of the Ki (pKi) at Coagulation factor X was 9.59. Further, the PT with Plasma came out at 1.5 µM.

On Coagulation factor X, `CCN(C)Cc1ccccc1N1CCC(NC(=O)c2cc(C(F)(F)F)nn2-c2ccc3onc(N)c3c2)CC1` showed a negative logarithm of the Ki (pKi) of 9.15. In addition, the apparent permeability coefficient (Papp) in series [1] came to 2.7 ×10⁻⁶ cm/s. For the same compound, the clearance in series [2] was 71.7 mL/min/kg. Also, the intrinsic metabolic clearance (microsomal CLint) in series [4] came out at 29 µL/min/mg. In the series “in vivo”, this compound showed a bioavailability of 23%. Besides, the PT in the series on Plasma is 1.1 µM. In [3], this compound gave a half-life of 2.5 h.

For `COc1ccc(-n2nc(C(N)=O)c3c2C(=O)N(C2CCN(c4ccccc4S(N)(=O)=O)CC2)CC3)cc1`, the pKi at Coagulation factor X is 8.41.

For the compound `COc1ccc(-n2nc(C(F)(F)F)cc2C(=O)NC2CCN(c3ccccc3CN3CCOCC3)CC2)cc1`, the negative-log Ki (pKi) on Coagulation factor X is 8.18. Against the preceding compound, the pKi is 0.23 log units lower.

`Nc1noc2ccc(-n3nc(C(F)(F)F)cc3C(=O)NC3CCN(c4ccccc4CN4CCCC4)CC3)cc12` gave a pKi on Coagulation factor X of 9.21. Also, in series [1], the Papp was 1.3 ×10⁻⁶ cm/s. The compound also gave a clearance in [2] of 48.3 mL/min/kg. The intrinsic clearance (microsomal CLint) in series [4] amounted to 29 µL/min/mg. Also, in “in vivo”, the bioavailability amounted to 26%. This compound also showed a pEC50 in the series listed under Oryctolagus cuniculus of 6.13. For the same compound, the PT in the series with Plasma is 0.84 µM. Further, the half-life in [3] was 5 h.

Consider `CS(=O)(=O)c1ccccc1N1CCC(NC(=O)c2cc(C(F)(F)F)nn2-c2ccc3onc(N)c3c2)CC1=O` (configuration not stated), for which, at Coagulation factor X, the negative logarithm of the Ki (pKi) was 7.04.

In general, pKi refers to −log10 of the Ki, conventionally taken in molar units. Usually Papp stands for a coefficient for how fast a substance crosses the barrier. As usually defined, the clearance is the rate of elimination divided by the concentration. The low end stands for a low capacity for elimination, the high end for a high capacity for elimination. The bioavailability is the share of a dose that reaches the circulation, judged against a reference dose that is usually intravenous. Low values mean poor availability, high ones good availability. As usually defined, the half-life is the time in which the quantity being followed falls by half. By microsomal CLint is commonly meant the rate of metabolic loss divided by the concentration. What is called Ki is the dissociation constant of the complex between target and ligand, obtained from inhibition or displacement. By pEC50 is commonly meant the negative decadic logarithm of the EC50, by convention in mol/L.
